Test [1] deals with tight junctions (TJs) of the airway epithelium. Particulars: rat trachea lumen, 10 mM EDTA for 30 min, vs native.
Text: Quantification of airway epithelium integrity via bioimpedance measurement: To investigate the biophysical integrity of the airway epithelium nondestructively (FIG. 16), we created a platform that allowed quantification of the bioelectrical impedance (bioimpedance) of the airway tissue (FIG. 16A-B). This platform utilizes four electrode probes to measure the electrical properties of the tissue (FIG. 16C). During measurements, alternating electrical current (AC) at various frequencies (20 Hz-135 kHz) and 100 μA of magnitude were injected into the tissue using two current carrying electrodes (CC1 and CC2), while two voltage pick-up electrodes (PU1 and PU2) measured the potential distribution (FIG. 16C). The data were analyzed using the Cole model that describes the biological tissue as a combination of a resistor (R) and a constant phase element (CPE) (FIG. 16D, i).
A further test concerns human lungs. The test is described as follows: Xenogeneic cross-circulation support of human lungs with porcine host. The following applies: added to the immunosuppressive therapy, human lungs on xenogeneic cross-circulation. An excerpt: Preliminary Results: We support human lungs utilizing EVLP and a xenogeneic cross-circulation platform. […] With the addition of cobra venom factor to the immunosuppressive therapy, the risk of acute rejection was mitigated.

This is an account of results in US20260035643A1, “PHYSIOLOGIC AIRWAY MUCOSA AND PARENCHYMA BIOREACTOR AND EX VIVO WHOLE LUNG MODEL OF CYSTIC FIBROSIS FOR DISEASE MODELING AND THERAPEUTIC SCREENING” (The Trustees of Columbia University in the City of New York, priority 2023, published 2026).

Consider `O=C(O)CN(CCN(CC(=O)O)CC(=O)O)CC(=O)O` [EDTA, ethylenediaminetetraacetic acid], for which, in test [1], the “bioimpedance of treated airway tissue” value was “reduced impedance”.
As to cobra venom factor, in the test on human lungs, the “risk of acute rejection” value was “mitigated”.
